In patent US10053452B2 (AMGEN INC., priority 2013, dated 2018):

What was measured:
[1] = Relationship / interconversion between bismesylate crystalline forms; format: physicochemical
Text: AMG 900 bismesylate salt crystalline From A was identified as a dihydrate; AMG 900 bismesylate salt crystalline From B was identified as a dihydrate; AMG 900 bismesylate salt crystalline From C was identified as a monohydrate; and AMG 900 bismesylate salt crystalline From D was identified as a monohydrate. […].

[2] = test system: stage IV solid endometrial cancerous tumor; experiment: Human Ph I clinical trial, tumor response: endometrial tumor; conditions: CT
Text: FIGS. 31A and 31B are measurements of the same endometrial solid tumor depicted in FIGS. 30A and 30B, but with its size shown as measured alone the short axis by CT and calculated using RECIST 1.1.

[3] = test system: solid ovarian cancerous tumor; experiment: Human Ph I clinical trial, tumor response: ovarian tumor
Method: Specifically, FIG. 32A illustrates diametric measurements along the short axis of the tumor dosed with 30 mg once daily over a period of two (2) cycles, ie., 4 week (28 days).

[4] = Solid stability studies (storage at set temperature/humidity; HPLC, XRPD, TGA, DSC); format: physicochemical; conditions: for Total Impurities (%): acceptance < or = 2.0; for Assay (% w/w): acceptance 97.0-103.0; for Description: acceptance: White to brown powder
solid tumor = experiment: Human Ph I clinical trial: active dose and MTD/DLT; conditions: oral
[5] = Solubility studies in aqueous media, excipients or solvents (18-24 hrs, HPLC; solid form by XRPD); format: physicochemical; conditions: for solubility at 24 h: thermodynamic from solid
Method: (§1) An excess of solid material was stirred at 25° C. or 55° C. for 18-24 hrs in aqueous media, excipients or solvents as noted. At the appropriate time point, an aliquot of the sample was centrifuged. The supernatant was filtered through a PTFE syringe filter and analyzed by HPLC versus a standard curve. The solid was then analyzed by XRPD for identification of the form.

[6] = Solid photostability (1×ICH dose for UV and visible light); format: physicochemical; conditions: 1×ICH dose for UV and visible light
Method: For photostability studies, enough sample was placed in a open 100 mL glass crystallization dish and exposed to 1×ICH dose for UV and visible light. Samples were weighed out for HPLC, XRPD, TGA and DSC analysis as abve after the exposure to light.

[7] = Solid stability studies (storage at set temperature/humidity; HPLC, XRPD, TGA, DSC); format: physicochemical; conditions: for Assay (% w/w): acceptance 97.0-103.0; for physical and chemical stability of unmilled drug substance: up to 3 months, 30° C./65% RH and 40° C./75% RH
Method: Stability data was obtained for up to 3 months storage at the long term storage condition of 30° C./65% RH and at the accelerated condition of 40° C./75% RH for unmilled drug substance.
Another 10 mg was weighed into a 4 mL glass vial and placed under the same conditions. At each time point one flask was removed from the chamber or over, diluted with methanol to the 100 mL mark and analyzed by HPLC for purity and label claim % compared to the standard. Also at each time point one vial was removed from the chamber and the contents were analyzed by XRPD, TGA and/or DSC.

Dog pK study = format: in vivo
Text: To this end, a various crystalline forms of different pharmaceutically acceptable salts of AMG 900 were investigated and made.

[8] = Dynamic vapor sorption (DVS) moisture uptake; format: physicochemical
Method: Moisture uptake of a given AMG 900 salt crystalline form was assessed by dynamic vapor sorption (DVS). Moisture sorption/desorption data was collected on a Surface Measurement System (SMS) DVS-Advantage vapor sorption analyzer (SMS, Alperton, Middlesex, UK). The sorption and desorption data was collected over a range of 0 to 95% relative humidity (RH) at 25° C. with 5-10% RH intervals under a nitrogen purge. Equilibrium criteria used for analysis were less than 0.002% weight change in 5 minutes, with a maximum equilibrium time of 120 minutes if the weight criterion was not met.

p-Histone H3 [9] = experiment: p-Histone H3 in HeLa cells; conditions: Homo sapiens, read-out: IC50 p-Histone H3
p-Histone H3 [10] = experiment: p-Histone H3 in Jurkat cells; conditions: Homo sapiens, read-out: IC50 for p-Histone H3
[11] = Solubility of salt/crystal forms in 0.01N HCl over 24 hrs; format: physicochemical; conditions: slurry
Method: as §1

[12] = platinum-sensitive ovarian cancer patient, 16 mg, then 8 mg (cycles 4-15), 12 mg (cycle 16) once daily, end of cycle 16
[13] = 30° C./65% RH, Initial Period Time 0
[14] = up to 12 weeks, 25° C./60% RH, 40° C./60% RH, 40° C./75% RH and 60° C./Amb

## Cc1csc(-c2nnc(Nc3ccc(Oc4ncccc4-c4ccnc(N)n4)cc3)c3ccccc23)c1 [AMG 900 bismesylate dihydrate form B, N-(4-((3-(2-amino-4-pyrimidinyl)-2-pyridinyl)oxy)phenyl)-4-(4-methyl-2-thienyl)-1-phthalazinamine]
[1]
  thermodynamic stability of the crystalline form: thermodynamically stable form
[2]; endometrial tumor patient, 30 mg+GCSF once daily, 4 days on/10 days off, week 24, RECIST 1.0
  decrease of long axis diameter versus base line: approximately 50%
[3]; [12]
  decrease in CA-125: 45%
  decrease in SLD (sum of long axis diameters) on CT: 16%
[3]; stage IV-B ovarian tumor patient, 30 mg once daily, 4 days on/10 days off, two cycles, week 4, RECIST 1.1
  reduction of short axis diameter versus base line: about 30%
[4]; 30° C./65% RH, 3 months
  Water content (%): 5.1%
  Total Impurities (%): 0.21%
[4]; 30° C./65% RH, 3 months, acceptance < or = 500
  4-aminophenol content (ppm): <20 ppm
[4]; 30° C./65% RH, 6 months
  Water content (%): 5.2%
  Assay (% w/w): 99.1 % w/w
  Total Impurities (%): 0.16%
  Description: conforms
[4]; 30° C./65% RH, 6 months, acceptance < or = 500
  4-aminophenol content (ppm): <20 ppm
[4]; 30° C./65% RH, 9 months
  Water content (%): 5.2%
  Assay (% w/w): 101.2 % w/w
  Total Impurities (%): 0.25%
  Description: conforms
[4]; 30° C./65% RH, 9 months, acceptance < or = 500
  4-aminophenol content (ppm): <20 ppm
[4]; 30° C./65% RH, 12 months
  Water content (%): 5.2%
  Assay (% w/w): 100.1 % w/w
  Total Impurities (%): 0.26%
  Description: conforms
[4]; 30° C./65% RH, 12 months, acceptance < or = 500
  4-aminophenol content (ppm): <20 ppm
[4]; 30° C./65% RH, 12 months, acceptance < or = 500, intermediate is 4-(2-(4-aminophenoxy)pyridin-3-yl)pyrimidin-2-amine
  Intermediate* content (ppm): 171 ppm
[4]; [13]
  Water content (%): 5.0%
  Description: conforms
[4]; [14]
  chemical stability (HPLC): no degradation detected
  physical stability (XRPD, TGA and DSC): physically stable
Solid tumor
  dose at which MTD's and DLT's were observed: greater than 8 mg
Solid tumor; on-off schedule, ovarian and endometrial tumors
  once daily dose at which anti cancer activity was observed: ≥ 8 mg
[5]; 24 hrs, all media except aqueous pH 7 and pH 12
  form stability after slurry in various aqueous media and solvents: remain unchanged (stable)
[5]; DMF, organic solvent or mixture
  solubility at 24 h: > 12000 µg/mL
[5]; THF, organic solvent or mixture
  solubility at 24 h: 12 µg/mL
[5]; acetone, organic solvent or mixture
  solubility at 24 h: 20 µg/mL
[5]; aqueous MSA, aqueous buffer, pH 0.5 MSA
  solubility at 24 h: 676 µg/mL
[5]; aqueous MSA, aqueous buffer, pH 1.0 MSA
  solubility at 24 h: > 7400 µg/mL
[5]; aqueous MSA, aqueous buffer, pH 1.5 MSA
  solubility at 24 h: 3400 µg/mL
[5]; aqueous MSA, aqueous buffer, pH 2.0 MSA
  solubility at 24 h: 1620 µg/mL
[5]; aqueous pH 7, 24 hrs
  form after slurry: converted to the free base form C hydrate
[5]; aqueous pH 12, 24 hrs
  form after slurry: converted to the free base form C hydrate
[5]; ethanol, organic solvent or mixture
  solubility at 24 h: > 12000 µg/mL
[5]; ethyl acetate, organic solvent or mixture
  solubility at 24 h: < 1 µg/mL
[5]; isopropyl alcohol, organic solvent or mixture
  solubility at 24 h: > 1 µg/mL
[5]; methanol, organic solvent or mixture
  solubility at 24 h: > 12000 µg/mL
[5]; methanol/water (9:1), organic solvent or mixture
  solubility at 24 h: > 12000 µg/mL
[5]; methyl ethyl ketone, organic solvent or mixture, Methyl ethyl keone
  solubility at 24 h: < 1 µg/mL
[5]; organic solvent or mixture, Acetonitrile (ACN)
  solubility at 24 h: 383 µg/mL
[5]; organic solvent or mixture, Dichloroethane (DCE)
  solubility at 24 h: 8 µg/mL
[5]; phosphate buffer, aqueous buffer, pH 7.0 Phosphate
  solubility at 24 h: < 1 µg/mL
[5]; phosphate buffer, aqueous buffer, pH 12.0 Phosphate
  solubility at 24 h: < 1 µg/mL
[6]
  chemical and physical stability to light: chemically and physically stable
[7]; 30° C./65% RH, 3 months
  Assay (% w/w): 99.2 % w/w
[7]; 30° C./65% RH, 3 months, acceptance: White to brown powder
  Description: conforms
[7]; [13]
  Assay (% w/w): 98.1 % w/w
[7]; 30° C./65% RH, Initial Period Time 0, acceptance < or = 2.0
  Total Impurities (%): 0.35%
[7]; 30° C./65% RH, Initial Period Time 0, acceptance < or = 500
  4-aminophenol content (ppm): <20 ppm
[7]; listed as AMG 900 bis-mesylate dihydrate drug substance
  physical and chemical stability of unmilled drug substance: remain within specifications
[7]; listed as AMG 900 bismesylate (dimethanesulfonate) salt crystalline Form B
  physical and chemical stability of unmilled drug substance: stable
Dog pK study; dog
  exposure in a dog pK study: acceptable
[8]
  hygroscopicity: non-hygroscopic
[8]; above 10% RH
  stability to humidity changes (DVS isotherm): stable to humidity changes

## Cc1csc(-c2nnc(Nc3ccc(Oc4ncccc4-c4ccnc(N)n4)cc3)c3ccccc23)c1 [AMG 900, N-(4-((3-(2-amino-4-pyrimidinyl)-2-pyridinyl)oxy)phenyl)-4-(4-methyl-2-thienyl)-1-phthalazinamine]
p-Histone H3 [9]; 1 h
  IC50: 59 nM
p-Histone H3 [9]
  IC50: 238 nM
[2]; same endometrial tumor, 30 mg once daily, week 16, eight cycles, RECIST 1.1
  reduction of short axis diameter: up to 40%
p-Histone H3 [10]; 1 h
  IC50: 66 nM
p-Histone H3 [10]; 24 h
  IC50: 4 nM

## Cc1csc(-c2nnc(Nc3ccc(Oc4ncccc4-c4ccnc(N)n4)cc3)c3ccccc23)c1 [N-(4-((3-(2-amino-4-pyrimidinyl)-2-pyridinyl)oxy)phenyl)-4-(4-methyl-2-thienyl)-1-phthalazinamine]
[1]
  stability of the crystalline form: unstable
[1]; room temperature, normal humidity
  form conversion at room temperature: converts back to crystalline Form B

## Cc1csc(-c2nnc(Nc3ccc(Oc4ncccc4-c4ccnc(N)n4)cc3)c3ccccc23)c1 [bismesylate dihydrate form A, N-(4-((3-(2-amino-4-pyrimidinyl)-2-pyridinyl)oxy)phenyl)-4-(4-methyl-2-thienyl)-1-phthalazinamine]
[1]; room temperature in a capped vial
  form conversion over time: converts to form B
[11]
  solubility versus AMG 900 free base crystalline form A: significant improvement in solubility

## Cc1csc(-c2nnc(Nc3ccc(Oc4ncccc4-c4ccnc(N)n4)cc3)c3ccccc23)c1 [bismesylate monohydrate form C, N-(4-((3-(2-amino-4-pyrimidinyl)-2-pyridinyl)oxy)phenyl)-4-(4-methyl-2-thienyl)-1-phthalazinamine]
[1]; relative humidity at or greater than 50%
  form conversion with an increase in humidity: convert to the dihydrate form B

## Cc1csc(-c2nnc(Nc3ccc(Oc4ncccc4-c4ccnc(N)n4)cc3)c3ccccc23)c1 [free base crystalline form A of AMG 900, N-(4-((3-(2-amino-4-pyrimidinyl)-2-pyridinyl)oxy)phenyl)-4-(4-methyl-2-thienyl)-1-phthalazinamine]
[5]; water
  solubility in water: poorly soluble
Dog pK study; dogs
  bioavailability in dogs: low
